Reference: ChEMBL document CHEMBL1133330, “N-benzylpyroglutamyl-L-phenylalanine derivatives as VCAM/VLA-4 antagonists” (Bioorg Med Chem Lett, 2000)

Tests used:
Integrin alpha-4/beta-1 [1] = biological target: T1, Integrin alpha-4/beta-1 (Homo sapiens, UniProt P05556+P13612); assay: Antagonistic activity against VLA-4 (derived from ramos cells) binding to recombinant human VCAM by ELISA assay; assay type: cell-based
Integrin alpha-4/beta-1 [2] = biological target: T1, Integrin alpha-4/beta-1; assay: Antagonistic activity against VLA-4 binding to recombinant human VCAM by ramos cell assay; assay type: cell-based

T1 sequence (P05556 whole entry): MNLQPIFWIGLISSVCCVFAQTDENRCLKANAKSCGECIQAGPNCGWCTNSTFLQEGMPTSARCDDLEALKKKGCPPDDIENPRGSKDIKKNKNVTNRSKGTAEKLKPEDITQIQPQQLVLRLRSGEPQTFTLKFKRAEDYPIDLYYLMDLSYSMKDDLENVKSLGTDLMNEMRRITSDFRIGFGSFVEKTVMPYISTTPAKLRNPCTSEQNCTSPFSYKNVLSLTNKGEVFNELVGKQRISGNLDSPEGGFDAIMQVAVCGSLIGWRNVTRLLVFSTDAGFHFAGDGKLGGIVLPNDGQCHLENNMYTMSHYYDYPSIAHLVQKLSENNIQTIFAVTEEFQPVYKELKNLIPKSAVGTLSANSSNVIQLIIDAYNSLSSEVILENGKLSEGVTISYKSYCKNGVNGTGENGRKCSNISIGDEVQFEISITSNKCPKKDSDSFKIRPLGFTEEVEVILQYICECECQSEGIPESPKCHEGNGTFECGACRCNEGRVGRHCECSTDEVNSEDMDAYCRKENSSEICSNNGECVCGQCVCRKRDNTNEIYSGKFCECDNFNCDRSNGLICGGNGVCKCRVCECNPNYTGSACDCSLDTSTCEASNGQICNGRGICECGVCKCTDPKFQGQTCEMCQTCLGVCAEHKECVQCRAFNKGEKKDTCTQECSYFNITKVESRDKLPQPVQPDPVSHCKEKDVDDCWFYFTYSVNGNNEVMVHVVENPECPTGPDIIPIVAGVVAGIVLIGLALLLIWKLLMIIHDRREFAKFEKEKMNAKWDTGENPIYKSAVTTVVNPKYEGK
T1 sequence (P13612 whole entry): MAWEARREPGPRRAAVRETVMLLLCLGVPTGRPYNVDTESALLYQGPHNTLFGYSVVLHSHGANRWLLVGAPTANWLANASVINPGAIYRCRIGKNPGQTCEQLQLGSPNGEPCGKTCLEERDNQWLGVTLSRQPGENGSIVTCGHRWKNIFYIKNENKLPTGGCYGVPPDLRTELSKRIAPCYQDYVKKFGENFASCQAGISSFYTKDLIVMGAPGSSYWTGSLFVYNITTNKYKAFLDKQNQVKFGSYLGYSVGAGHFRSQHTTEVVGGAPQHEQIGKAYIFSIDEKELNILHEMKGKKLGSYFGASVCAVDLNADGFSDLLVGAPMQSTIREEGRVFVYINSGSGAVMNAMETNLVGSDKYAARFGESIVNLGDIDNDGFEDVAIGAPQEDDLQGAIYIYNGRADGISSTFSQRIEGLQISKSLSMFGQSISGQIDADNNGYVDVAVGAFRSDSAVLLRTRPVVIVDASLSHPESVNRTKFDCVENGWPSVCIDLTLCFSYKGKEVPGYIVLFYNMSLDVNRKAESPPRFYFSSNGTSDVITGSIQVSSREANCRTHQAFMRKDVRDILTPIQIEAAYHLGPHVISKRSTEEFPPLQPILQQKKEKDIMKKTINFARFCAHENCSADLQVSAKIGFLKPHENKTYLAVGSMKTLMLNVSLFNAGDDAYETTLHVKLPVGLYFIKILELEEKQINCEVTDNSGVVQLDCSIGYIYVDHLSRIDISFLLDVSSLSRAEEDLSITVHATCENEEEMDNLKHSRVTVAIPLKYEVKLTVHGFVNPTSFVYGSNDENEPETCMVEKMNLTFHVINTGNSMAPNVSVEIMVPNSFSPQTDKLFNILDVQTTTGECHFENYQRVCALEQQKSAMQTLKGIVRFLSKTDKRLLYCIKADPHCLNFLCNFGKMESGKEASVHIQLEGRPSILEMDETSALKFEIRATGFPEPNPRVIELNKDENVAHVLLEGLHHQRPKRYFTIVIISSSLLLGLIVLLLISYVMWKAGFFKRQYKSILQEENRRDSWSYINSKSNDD

SMILES | IC50 (Integrin alpha-4/beta-1 [1]) [nM] | IC50 (Integrin alpha-4/beta-1 [2]) [nM]
[N-]=[N+]=NCc1ccc(C[C@H](NC(=O)[C@@H]2CCC(=O)N2Cc2ccccc2)C(=O)O)cc1 | 74 | –
O=C(O)[C@H](Cc1ccc2ccccc2c1)NC(=O)[C@@H]1CCC(=O)N1Cc1ccccc1 | 59 | –
O=C(O)[C@H](Cc1ccc(/C=C/c2ccc([N+](=O)[O-])cc2)cc1)NC(=O)[C@@H]1CCC(=O)N1Cc1ccccc1 | 90 | –
O=C(O)[C@H](Cc1ccc(NS(=O)(=O)c2cccc(C(F)(F)F)c2)cc1)NC(=O)[C@@H]1CCC(=O)N1Cc1ccccc1 | 20 | 26000
O=C(Nc1ccc(C[C@H](NC(=O)C2CCC(=O)N2Cc2ccccc2)C(=O)O)cc1)c1cc(C(F)(F)F)ccc1C(F)(F)F (stereo partly drawn) | 1.1 | 54
Cc1ccc(C(=O)Nc2ccc(C[C@H](NC(=O)C3CCC(=O)N3Cc3ccccc3)C(=O)O)cc2)c(Cl)n1 (stereo partly drawn) | 2.4 | 33
Cc1ccc([N+](=O)[O-])cc1C(=O)Nc1ccc(C[C@H](NC(=O)C2CCC(=O)N2Cc2ccccc2)C(=O)O)cc1 (stereo partly drawn) | 0.26 | 11
O=C(Nc1ccc(C[C@H](NC(=O)C2CCC(=O)N2Cc2ccccc2)C(=O)O)cc1)c1cc(F)c(F)cc1F (stereo partly drawn) | 1.6 | 127
O=C(NCc1ccc(C[C@H](NC(=O)[C@@H]2CCC(=O)N2Cc2ccccc2)C(=O)O)cc1)c1cccnc1 | 53 | –
O=C(Nc1ccc(C[C@H](NC(=O)[C@@H]2CCC(=O)N2Cc2ccccc2)C(=O)O)cc1)c1ccc([N+](=O)[O-])cc1 | 2.2 | 560
COc1ccc(C[C@H](NC(=O)[C@@H]2CCC(=O)N2Cc2ccccc2)C(=O)O)cc1 | 160 | –
CC(=O)N[C@H](Cc1ccc(O)cc1)C(=O)Nc1ccc(C[C@H](NC(=O)[C@@H]2CCC(=O)N2Cc2ccccc2)C(=O)O)cc1 | 5.3 | 1900
CC(=O)N[C@@H](Cc1ccc(O)cc1)C(=O)NCc1ccc(C[C@H](NC(=O)[C@@H]2CCC(=O)N2Cc2ccccc2)C(=O)O)cc1 | 20 | –
COc1ccc(-c2cccnc2C(=O)Nc2ccc(C[C@H](NC(=O)C3CCC(=O)N3Cc3ccccc3)C(=O)O)cc2)cc1 (stereo partly drawn) | 0.88 | 29
O=C(Nc1ccc(C[C@H](NC(=O)C2CCC(=O)N2Cc2ccccc2)C(=O)O)cc1)c1c(Cl)cccc1Cl (stereo partly drawn) | 0.37 | 12
O=C(Nc1ccc(C[C@H](NC(=O)C2CCC(=O)N2Cc2ccccc2)C(=O)O)cc1)c1ccc(Cl)cc1[N+](=O)[O-] (stereo partly drawn) | 0.37 | 7
NS(=O)(=O)c1ccc(C(=O)Nc2ccc(C[C@H](NC(=O)C3CCC(=O)N3Cc3ccccc3)C(=O)O)cc2)cc1 (stereo partly drawn) | 3.5 | 1060
O=C(Nc1ccc(C[C@H](NC(=O)C2CCC(=O)N2Cc2ccccc2)C(=O)O)cc1)c1ccccc1[N+](=O)[O-] (stereo partly drawn) | 0.87 | 33
O=C(O)[C@H](Cc1ccccc1)NC(=O)[C@@H]1CCC(=O)N1Cc1ccccc1 | 460 | –
COc1ccc(C(=O)Nc2ccc(C[C@H](NC(=O)C3CCC(=O)N3Cc3ccccc3)C(=O)O)cc2)c(OC)n1 (stereo partly drawn) | 2.4 | 102

SMILES | IC50 (Integrin alpha-4/beta-1 [1]) [nM] | IC50 (Integrin alpha-4/beta-1 [2]) [nM]
O=C(O)[C@H](Cc1cccc2ccccc12)NC(=O)[C@@H]1CCC(=O)N1Cc1ccccc1 | 230 | –
O=C(O)[C@H](Cc1ccc2c(c1)OCO2)NC(=O)[C@@H]1CCC(=O)N1Cc1ccccc1 | 220 | –
O=C(Nc1ccc(C[C@H](NC(=O)C2CCC(=O)N2Cc2ccccc2)C(=O)O)cc1)c1cccnc1O (stereo partly drawn) | 4 | 1850
CC(=O)N[C@@H](Cc1ccc(O)cc1)C(=O)Nc1ccc(C[C@H](NC(=O)[C@@H]2CCC(=O)N2Cc2ccccc2)C(=O)O)cc1 | 8.2 | 2100
O=C(Nc1ccc(C[C@H](NC(=O)C2CCC(=O)N2Cc2ccccc2)C(=O)O)cc1)c1ccnc2ccccc12 (stereo partly drawn) | 1.4 | 80
O=C(O)[C@H](Cc1ccc(CO)cc1)NC(=O)[C@@H]1CCC(=O)N1Cc1ccccc1 | 152 | –
N#Cc1ccc(C[C@H](NC(=O)[C@@H]2CCC(=O)N2Cc2ccccc2)C(=O)O)cc1 | 1000 | –
O=C(O)[C@H](Cc1ccc(OCc2ccc([N+](=O)[O-])cc2)cc1)NC(=O)[C@@H]1CCC(=O)N1Cc1ccccc1 | 18 | –
O=C(O)[C@H](Cc1ccc([N+](=O)[O-])cc1)NC(=O)[C@@H]1CCC(=O)N1Cc1ccccc1 | 560 | –
CC1CCC(C[C@H](NC(=O)[C@@H]2CCC(=O)N2Cc2ccccc2)C(=O)O)CC1 (stereo partly drawn) | 42500 | –
N#Cc1cccc(C(=O)Nc2ccc(C[C@H](NC(=O)C3CCC(=O)N3Cc3ccccc3)C(=O)O)cc2)c1 (stereo partly drawn) | 4.6 | 260
O=C(Nc1ccc(C[C@H](NC(=O)C2CCC(=O)N2Cc2ccccc2)C(=O)O)cc1)c1ccccn1 (stereo partly drawn) | 3.6 | 260
O=C(O)[C@H](Cc1ccc(CCc2ccccc2)cc1)NC(=O)[C@@H]1CCC(=O)N1Cc1ccccc1 | 38 | –
O=C(O)[C@H](Cc1ccc(COc2ccc([N+](=O)[O-])cc2)cc1)NC(=O)[C@@H]1CCC(=O)N1Cc1ccccc1 | 32 | –
O=C(O)[C@H](Cc1ccc(C#Cc2ccccc2)cc1)NC(=O)[C@@H]1CCC(=O)N1Cc1ccccc1 | 53 | –
O=C(Nc1ccc(C[C@H](NC(=O)C2CCC(=O)N2Cc2ccccc2)C(=O)O)cc1)c1ccc(F)cc1C(F)(F)F (stereo partly drawn) | 0.75 | 28
COc1ccc([N+](=O)[O-])cc1C(=O)Nc1ccc(C[C@H](NC(=O)C2CCC(=O)N2Cc2ccccc2)C(=O)O)cc1 (stereo partly drawn) | 0.82 | 28
Cc1ccc([N+](=O)[O-])c(C(=O)Nc2ccc(C[C@H](NC(=O)C3CCC(=O)N3Cc3ccccc3)C(=O)O)cc2)c1 (stereo partly drawn) | 0.74 | 77
O=C(O)[C@H](Cc1ccc(NS(=O)(=O)c2ccc([N+](=O)[O-])cc2)cc1)NC(=O)[C@@H]1CCC(=O)N1Cc1ccccc1 | 17 | 16000
O=C(Nc1ccc(C[C@H](NC(=O)[C@@H]2CCC(=O)N2Cc2ccccc2)C(=O)O)cc1)c1ccccc1 | 6.3 | 310
